In patent publication US9670261B2 (Sanofi, priority 2012, dated 2017):
≈ marks a conversion by molar mass, not a printed value. *1 amine or outer side, *2 acyl side, *3 side chain or, on linkers, in order; H or OH if unused. Where a SMILES comes first, the peptide text is derived from it. Side-chain parts run from the residue outwards. [ ]: non-standard residue; d: D form. The star is where a group is joined. γGlu = O=C(O)[C@H](CCC(=O)[*:2])N[*:1]; Stearoyl = CCCCCCCCCCCCCCCCCC(=O)*; Palmitoyl = CCCCCCCCCCCCCCCC(=O)*; Aib = CC(C)(N)C(=O)O

What was measured:
[1] = Solubility testing in buffer (HPLC-UV)
female NMRI-mice [2] = assay: Gastric emptying and intestinal passage in mice; format: in vivo; settings: 10 μg/kg s.c., versus vehicle control
Method: Female NMRI-mice of a body weight between 20 and 30 g were used. Mice were adapted to housing conditions for at least one week. Mice were overnight fasted, while water remained available all the time. On the study day, mice were weighed, single-caged and allowed access to 500 mg of feed for 30 min, while water was removed. At the end of the […], remaining feed was removed and weighed. Then, the test compound/reference compound or its vehicle in the control group was administered subcutaneously. 60 min later, to allow the compound to reach relevant plasma exposure, a coloured, non-caloric bolus was instilled via gavage into the stomach. After another 30 min, the animals were sacrificed and the stomach and the small intestine prepared. The filled stomach was weighed, emptied, carefully cleaned and dried and reweighed. The stomach content, calculated as weight of filled subtracted by the weight of emptied stomach, indicated the degree of gastric emptying. The small intestine was straightened without force and measured in length. Then the distance from the gastric beginning of the gut to the tip of the farthest traveled intestinal content bolus was measured. The intestinal passage was given as ratio in percent of the latter distance and the total length of the small intestine. […] Statistical analyses were performed with Everstat 6.0 by 1-way-ANOVA, followed by Dunnett's as post-hoc test. Dunnett's Test was applied to compare versus vehicle control. Differences were considered statistically significant at the p<0.05 level.

female NMRI-mice [3] = assay: Automated assessment of 22-hours feed intake in mice; format: in vivo; settings: 0.1 mg/kg s.c.
Method: Female NMRI-mice of a body weight between 20 and 30 g were used. Mice were adapted to housing conditions for at least one week and for at least one day single-caged in the assessment equipment, when basal data were recorded simultaneously. On the study day, test product was administered subcutaneously close to the lights-off phase (12 h lights off) and assessment of feed consumption was directly started afterwards. Assessment included continued monitoring over 22 hours, while data are processed as mean over every 30 min. Repetition of this procedure over several days was possible. Restriction of assessment to 22 hours was for practical reasons to allow for reweighing of animals, refilling of feed and water and drug administration between procedures. Results could be assessed as cumulated data over 22 hours or differentiated to 30 min intervals. […] Statistical analyses were performed with Everstat 6.0 by two-way ANOVA on repeated measures and Dunnett's post-hoc analyses. Differences were considered statistically significant at the p<0.05 level. […] Lights-off phase (dark phase) started 4 hours later. […].

[4] = Pharmacokinetic testing in mice, s.c.; settings: mouse, sc, 1 mg/kg
Method: Mice were dosed 1 mg/kg subcutaneously (s.c.). The mice were sacrified and blood samples were collected after 0.25, 0.5, 1, 2, 4, 8, 16 and 24 hours post application. Plasma samples were analyzed after protein precipitation via liquid chromatography mass spectrometry (LC/MS). PK parameters and half-life were calculated using WinonLin Version 5.2.1 (non-compartment model).

[5] = test system: female leptin-receptor deficient diabetic db/db mice; assay: Blood glucose and HbA1c in leptin-receptor deficient diabetic db/db mice (method 3); format: in vivo; settings: single 100 μg/kg s.c., fed db/db mice
From the text: Female BKS.Cg-m+/+Leprdb/J (db/db) and BKS.Cg-m+/+Leprdb/+(lean control) mice were obtained from Charles River Laboratories, Germany, at an age of 9-10 weeks. The animals were housed in groups in a specific pathogen-free barrier facility on a 12-h light/dark cycle with free access to water and rodent-standard chow. After 1 week of acclimatization, blood samples were drawn from the tail without anaesthesia and blood glucose (method: d-glucose hexokinase, hemolysate, AU640 Beckman Coulter) and HbA1c level (method: hemolysate, Cobas6000 c501, Roche Diagnostics, Germany) were determined. […] The volume of administration was 5 mL/kg. The animals had access to water and chow during the experiment, food consumption was determined at all time points of blood sampling. […] Blood sampling was performed by tail incision without anaesthesia. […] At the end of the study, blood samples (tail, no anaesthesia) were analyzed for glucose and HbA1c. […] Statistical analyses were performed with Everstat 6.0 by repeated measures two-way ANOVA and Dunnett's post-hoc analyses. Differences versus vehicle-treated db/db control mice were considered statistically significant at the p<0.05 level. […] At predefined time points, more blood samples were taken to measure blood glucose and generate the blood glucose profile over 24 h. […] Blood glucose and HbA1c were determined before start of treatment and at the end of the study after 4 weeks of treatment. […] Before treatment started, no significant differences in blood glucose levels could be detected between db/db groups, only the lean control animals had significant lower glucose levels. During the 4 weeks of treatment, glucose levels increased in the vehicle-treated db/db control group, indicating a worsening of the diabetic situation.

[6] = Chemical stability in solution, 7 days at 25° C. (% remaining peptide); settings: % remaining peptide after 7 days at 25° C.
Method: After that time course, the sample was centrifuged for 20 min at 4000 rpm and the supernatant was analysed with HPLC-UV. For determination of the amount of the remaining peptide, the peak areas of the target compound at t0 and t7 were compared, resulting in “% remaining peptide”, following the equation % remaining peptide=[(peak area peptide t7)×100]/peak area peptide t0.
The chemical stability is expressed as “% remaining peptide”.

human GLP-1 receptor = target: T1, human GLP-1 receptor (Homo sapiens, UniProt P43220); assay: cAMP response (HTRF) of HEK-293 cells stably expressing human GLP-1 receptor; format: cell-based; settings: Table 7; cAMP formation; read-out: EC50 hGLP-1 R
T1 construct: expressed in transfected cells
Method in brief: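 Cells grown overnight in DMEM/10% FBS, detached with accutase, resuspended in HBSS with 20 mM HEPES, 0.1% BSA and 2 mM IBMX at 400000 cells/ml. Test compound added and incubated 30 minutes at room temperature; cellular cAMP then measured by HTRF.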

[7] = test system: female diabetic dbdb-mice; assay: Glucose, HbA1c and oral glucose tolerance in diabetic dbdb-mice, chronic treatment (method 4); format: in vivo
Method: 8 week old, female diabetic dbdb-mice of mean non-fasted glucose value of 14.5 mmol/l and a body weight of 37-40 g were used. Mice were individually marked and were adapted to housing conditions for at least one week.
7 days prior to study start, baseline values for non-fasted glucose and HbA1c were determined, 5 days prior to study start, mice were assigned to groups and cages (5 mice per cage, 10 per group) according to their HbA1c values to ensure even distribution of lower and higher values between groups (stratification).
Mice were treated for 4 weeks, by once daily subcutaneous administration 3 hours prior to the dark phase (6 pm to 6 am). Blood samples from a tail tip incision were obtained for HbA1c on study day 21 and oral glucose tolerance was assessed in the 4th week. Oral glucose tolerance test was done in the morning without prior extra compound administration to majorly assess the effect of chronic treatment and less of acute compound administration. Mice were fasted for 4 hours prior to oral glucose administration (2 g/kg, t=0 min). Blood samples were drawn prior to glucose administration and at 15, 30, 60, 90, 120, and 180 min thereafter. Feed was returned after the last blood sampling. Results are represented as change from baseline, glucose in mmol/l and HbA1c in %.
Statistical analyses are performed with Everstat Version 6.0 based on SAS by 1-way-ANOVA, followed by Dunnett's post-hoc test against vehicle-control. Differences are considered statistically significant at the p<0.05 level.
Female dbdb-mice, received 3 and 10 μg/kg of SEQ ID NO: 16 and 10 μg/kg of SEQ ID NO: 21 or phosphate buffered saline (vehicle control) once daily, subcutaneously over four weeks.

T1 sequence (P43220 24-463): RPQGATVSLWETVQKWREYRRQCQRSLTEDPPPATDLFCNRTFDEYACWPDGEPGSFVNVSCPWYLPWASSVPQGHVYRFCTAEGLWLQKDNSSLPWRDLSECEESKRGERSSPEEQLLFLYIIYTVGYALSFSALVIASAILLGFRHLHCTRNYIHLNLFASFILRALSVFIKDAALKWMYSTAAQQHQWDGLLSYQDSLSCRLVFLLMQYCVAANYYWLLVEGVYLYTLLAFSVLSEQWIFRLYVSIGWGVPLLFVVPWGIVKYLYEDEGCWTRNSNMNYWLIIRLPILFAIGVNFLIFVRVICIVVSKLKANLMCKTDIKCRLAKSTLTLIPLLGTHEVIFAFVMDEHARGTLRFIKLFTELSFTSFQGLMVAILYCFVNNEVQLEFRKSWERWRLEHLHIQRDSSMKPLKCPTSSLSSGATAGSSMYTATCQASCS

## CCCCCCCCCCCCCCCC(=O)N[C@@H](CCC(=O)NCCCC[C@H](NC(=O)[C@H](CCC(N)=O)NC(=O)[C@@H](NC(=O)[C@H](CO)NC(=O)[C@H](CC(C)C)NC(=O)[C@H](CC(=O)O)NC(=O)[C@H](CO)NC(=O)[C@@H](NC(=O)[C@H](Cc1ccccc1)NC(=O)[C@@H](NC(=O)CNC(=O)[C@H](CCC(N)=O)NC(=O)C(C)(C)NC(=O)[C@@H](N)Cc1ccc(O)cc1)[C@@H](C)O)[C@@H](C)O)[C@@H](C)CC)C(=O)N[C@@H](CC(=O)O)C(=O)N[C@@H](CO)C(=O)N[C@@H](CCCNC(=N)N)C(=O)N[C@@H](C)C(=O)N[C@@H](C)C(=O)N[C@@H](CCC(N)=O)C(=O)N[C@@H](CC(=O)O)C(=O)N[C@@H](Cc1ccccc1)C(=O)N[C@H](C(=O)N[C@@H](CCC(=O)O)C(=O)N[C@@H](Cc1c[nH]c2ccccc12)C(=O)N[C@@H](CC(C)C)C(=O)N[C@@H](CCCCN)C(=O)N[C@@H](CC(N)=O)C(=O)NCC(=O)NCC(=O)N1CCC[C@H]1C(=O)N[C@@H](CO)C(=O)N[C@@H](CO)C(=O)NCC(=O)N[C@@H](C)C(=O)N1CCC[C@H]1C(=O)N1CCC[C@H]1C(=O)N1CCC[C@H]1C(=O)N[C@@H](CO)C(N)=O)[C@@H](C)CC)C(=O)O [SEQ ID NO: 13, Y-Aib-Q-G-T-F-T-S-D-L-S-I-Q-K(γE-x53)-DSRAAQDFIEWLKNGGPSSGAPPPS-NH2] (H-Y[Aib]QGTFTSDLSIQK([γGlu-Palmitoyl])DSRAAQDFIEWLKNGGPSSGAPPPS-NH2)
[1]; pH 4.5
  solubility at 2 h: 0.268 mg/mL (≈ 59.4 µM)
[1]; pH 7.4
  solubility at 2 h: > 1 mg/mL
Female NMRI-mice [2]
  increase of remaining gastric contents: 40%
  reduction of intestinal passage: 60%
Female NMRI-mice [3]
  reduction of feed intake after 22 hours: 93%
[4]; in vivo
  Cmax: 3.79 µg/mL
  half-life: 3.1 h
[5]
  blood glucose compared to db/db control mice, 24 h profile: significant decrease in blood glucose
[6]; pH 4.5
  Stability (pH 4.5): 86.8%
[6]; pH 7.4
  Stability (pH 7.4): 95.9%

## CCCCCCCCCCCCCCCCCC(=O)N[C@@H](CCC(=O)N[C@@H](CCC(=O)NCCCC[C@H](NC(=O)[C@H](CCC(N)=O)NC(=O)[C@@H](NC(=O)[C@H](CO)NC(=O)[C@H](CC(C)C)NC(=O)[C@H](CC(=O)O)NC(=O)[C@H](CO)NC(=O)[C@@H](NC(=O)[C@H](Cc1ccccc1)NC(=O)[C@@H](NC(=O)CNC(=O)[C@H](CCC(=O)O)NC(=O)C(C)(C)NC(=O)[C@@H](N)Cc1ccc(O)cc1)[C@@H](C)O)[C@@H](C)O)[C@@H](C)CC)C(=O)N[C@@H](CCC(=O)O)C(=O)N[C@@H](CCCCN)C(=O)N[C@@H](CCCNC(=N)N)C(=O)N[C@@H](C)C(=O)N[C@@H](C)C(=O)NC(C)(C)C(=O)N[C@@H](CCC(=O)O)C(=O)N[C@@H](Cc1ccccc1)C(=O)N[C@H](C(=O)N[C@@H](CCC(=O)O)C(=O)N[C@@H](Cc1c[nH]c2ccccc12)C(=O)N[C@@H](CC(C)C)C(=O)N[C@@H](CCCCN)C(=O)N[C@@H](CC(N)=O)C(=O)N[C@H](C(=O)NCC(=O)N1CCC[C@H]1C(=O)N[C@@H](CO)C(=O)N[C@@H](CO)C(=O)NCC(=O)N[C@@H](C)C(=O)N1CCC[C@H]1C(=O)N1CCC[C@H]1C(=O)N1CCC[C@H]1C(=O)N[C@@H](CO)C(N)=O)[C@@H](C)O)[C@@H](C)CC)C(=O)O)C(=O)O [SEQ ID NO: 16, Y-Aib-E-G-T-F-T-S-D-L-S-I-Q-K(γE-γE-x70)-E-K-R-A-A-Aib-E-F-I-E-W-L-K-N-T-G-P-S-S-G-A-P-P-P-S-NH2] (H-Y[Aib]EGTFTSDLSIQK([γGlu-γGlu-Stearoyl])EKRAA[Aib]EFIEWLKNTGPSSGAPPPS-NH2)
Human GLP-1 receptor
  EC50: 4 pM
[4]; plasma
  Cmax: 3.46 µg/mL
  half-life: 5.3 h
[7]; once daily s.c., oral glucose 2 g/kg in the 4th week
  oral glucose tolerance: improved oral glucose tolerance
[7]; oral glucose tolerance test, p<0.05
  reduction of AUC under the glucose curve compared to vehicle control: reached statistical significance
